Reference: US11242337B2, “Compounds useful for treating gastrointestinal tract disorders” (Ardelyx, Inc., priority 2017, dated 2022)

biological target: T1, NHE3 (Homo sapiens, UniProt P48764); experiment: Cell-based assay of NHE-3 activity (persistent inhibition), human; details: human Persistence, 60 min incubation then washout
T1 construct: expressed in transfected cells
T1 sequence (P48764 26-834): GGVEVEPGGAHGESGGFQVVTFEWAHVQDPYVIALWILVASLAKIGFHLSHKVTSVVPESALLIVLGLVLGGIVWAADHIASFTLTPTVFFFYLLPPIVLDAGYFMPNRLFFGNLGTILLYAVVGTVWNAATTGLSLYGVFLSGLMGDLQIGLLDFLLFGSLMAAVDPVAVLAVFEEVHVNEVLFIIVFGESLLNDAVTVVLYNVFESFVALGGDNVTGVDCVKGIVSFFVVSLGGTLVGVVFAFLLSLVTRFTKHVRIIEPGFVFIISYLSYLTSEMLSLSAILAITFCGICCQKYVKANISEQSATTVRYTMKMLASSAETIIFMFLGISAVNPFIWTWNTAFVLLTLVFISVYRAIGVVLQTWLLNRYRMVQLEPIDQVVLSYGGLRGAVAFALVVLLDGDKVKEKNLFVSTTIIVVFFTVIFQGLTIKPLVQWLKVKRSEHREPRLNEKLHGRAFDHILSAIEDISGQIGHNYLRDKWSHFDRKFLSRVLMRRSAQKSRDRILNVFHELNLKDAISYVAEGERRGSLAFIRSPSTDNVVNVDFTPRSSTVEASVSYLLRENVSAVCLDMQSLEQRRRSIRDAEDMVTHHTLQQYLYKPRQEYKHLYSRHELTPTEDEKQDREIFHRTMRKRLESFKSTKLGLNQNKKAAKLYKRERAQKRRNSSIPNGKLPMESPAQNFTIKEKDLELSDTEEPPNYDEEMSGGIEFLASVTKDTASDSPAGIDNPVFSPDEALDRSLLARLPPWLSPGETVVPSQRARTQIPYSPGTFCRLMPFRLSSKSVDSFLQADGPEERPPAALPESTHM
T1 sequence (Q99653 2-195 partner limits assumed): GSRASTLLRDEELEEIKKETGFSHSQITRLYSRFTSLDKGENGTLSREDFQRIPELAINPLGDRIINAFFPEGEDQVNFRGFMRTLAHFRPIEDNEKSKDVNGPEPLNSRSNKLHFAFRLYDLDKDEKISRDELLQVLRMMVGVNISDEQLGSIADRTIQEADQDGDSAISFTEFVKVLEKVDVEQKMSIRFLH
In short: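 Persistent inhibition: compound (0-30 μM, 60 min, RT, NaCl-HEPES pH 7.4) removed before assay. Human NHE3/NHERF2 PS120 cells were then BCECF-loaded during NH4Cl pulse (30 min, 37 °C), acidified in Na+-free buffer, and Na+ added 10 min after washout; antiport measured as initial fluorescence-ratio change per minute.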

Row | % inhibition | pIC50 | SMILES
1 | C (>70%) | C (NHE3 pIC50 > 7) | Cc1cc(O[C@H]2c3cc(Cl)cc(Cl)c3C[C@@H]2N(C)C)c(F)cc1S(=O)(=O)NCCOCCOCCNC(=O)NCCCCNC(=O)NCCOCCOCCNS(=O)(=O)c1cc(F)c(O[C@H]2c3cc(Cl)cc(Cl)c3C[C@@H]2N(C)C)cc1C [Example 88, 3-[2-(2-[2-[(4-[[(1S,2S)-4,6-Dichloro-2-(dimethylamino)-2,3-dihydro-1H-inden-1-yl]oxy]-5-fluoro-2-methylbenzene)sulfonamido]ethoxy]ethoxy)ethyl]-1-[4-([[2-(2-[2-[(4-[[(1S,2S)-4,6-dichloro-2-(dimethylamino)-2,3-dihydro-1H-inden-1-yl]oxy]-5-fluoro-2-methylbenzene)sulfonamido]ethoxy]ethoxy)ethyl]carbamoyl]amino)butyl]urea]
2 | C (>70%) | C (NHE3 pIC50 > 7) | C[C@@H]1CN([C@H]2Cc3c(C#N)cc(Cl)cc3[C@@H]2Oc2ccc(S(=O)(=O)N[C@@H]3CCN(CCOCCNC(=O)NCCCCNC(=O)NCCOCCN4CC[C@@H](NS(=O)(=O)c5ccc(O[C@H]6c7cc(Cl)cc(C#N)c7C[C@@H]6N6CCN[C@H](C)C6)cc5)C4)C3)cc2)CCN1 [Example 133, 4-([(1S,2S)-6-Chloro-4-cyano-2-[(R)-3-methylpiperazin-1-yl]-2,3-dihydro-1H-inden-1-yl]oxy)-N—[(R)-1-(20-[(R)-3-([4-([(1S,2S)-6-chloro-4-cyano-2-[(R)-3-methylpiperazin-1-yl]-2,3-dihydro-1H-inden-1-yl]oxy)phenyl]sulfonamido)pyrrolidin-1-yl]-7,14-dioxo-3,18-dioxa-6,8,13,15-tetraazaicosyl)pyrrolidin-3-yl]benzenesulfonamide; bis(trifluoroacetic acid)]
3 | C (>70%) | C (NHE3 pIC50 > 7) | N#Cc1cc(Cl)cc2c1C[C@H](N1CCNCC1)[C@H]2Oc1ccc(S(=O)(=O)N[C@H]2CCN(CCOCCNC(=O)NCCCCNC(=O)NCCOCCN3CC[C@H](NS(=O)(=O)c4ccc(O[C@H]5c6cc(Cl)cc(C#N)c6C[C@@H]5N5CCNCC5)cc4)C3)C2)cc1 [Example 107, 4-([(1S,2S)-6-Chloro-4-cyano-2-(piperazin-1-yl)-2,3-dihydro-1H-inden-1-yl]oxy)-N—[(S)-1-(20-[(S)-3-([4-([(1S,2S)-6-chloro-4-cyano-2-(piperazin-1-yl)-2,3-dihydro-1H-inden-1-yl]oxy)phenyl]sulfonamido)pyrrolidin-1-yl]-7,14-dioxo-3,18-dioxa-6,8,13,15-tetraazaicosyl)pyrrolidin-3-yl]benzenesulfonamide; tetra(trifluoroacetate)]

Further lines, the compound ahead of its results:

Row | SMILES | % inhibition | pIC50
4 | N#Cc1cc(Cl)cc2c1C[C@H](N1CCNCC1)[C@H]2Oc1ccc(S(=O)(=O)NCCOCCOCCNC(=O)NCCCCNC(=O)NCCOCCOCCNS(=O)(=O)c2ccc(O[C@H]3c4cc(Cl)cc(C#N)c4C[C@@H]3N3CCNCC3)c(F)c2)cc1F [Example 43, 3-[2-(2-[2-[(4-[[(1S,2S)-6-Chloro-4-cyano-2-(piperazin-1-yl)-2,3-dihydro-1H-inden-1-yl]oxy]-3-fluorobenzene)sulfonamido]ethoxy]ethoxy)ethyl]-1-[4-([[2-(2-[2-[(4-[[(1S,2S)-6-chloro-4-cyano-2-(piperazin-1-yl)-2,3-dihydro-1H-inden-1-yl]oxy]-3-fluorobenzene)sulfonamido]ethoxy]ethoxy)ethyl]carbamoyl]amino)butyl]urea; bis(trifluoroacetic acid)] | C (>70%) | C (NHE3 pIC50 > 7)
5 | Cc1cc(S(=O)(=O)N2CC[C@@H](COCCOCCNC(=O)NCCCCNC(=O)NCCOCCOC[C@@H]3CCN(S(=O)(=O)c4ccc(O[C@H]5c6cc(Cl)cc(Cl)c6C[C@@H]5N(C)C)c(C)c4)C3)C2)ccc1O[C@H]1c2cc(Cl)cc(Cl)c2C[C@@H]1N(C)C [Example 45, 3-[2-(2-[[(3R)-1-[(4-[[(1S,2S)-4,6-Dichloro-2-(dimethylamino)-2,3-dihydro-1H-inden-1-yl]oxy]-3-methylbenzene)sulfonyl]pyrrolidin-3-yl]methoxy]ethoxy)ethyl]-1-[4-([[2-(2[[(3R)-1-[(4-[[(1S,2S)-4,6-dichloro-2-(dimethylamino)-2,3-dihydro-1H-inden-1-yl]oxy]-3-methylbenzene)sulfonyl]pyrrolidin-3-yl]methoxy]ethoxy)ethyl]carbamoyl]amino)butyl]urea; bis(trifluoroacetic acid)] | C (>70%) | C (NHE3 pIC50 > 7)
6 | O=C(NCCCCNC(=O)NCCOCCOCCNS(=O)(=O)c1ccc(O[C@H]2c3cc(Cl)cc(Cl)c3C[C@@H]2N2CCNCC2)c(F)c1)NCCOCCOCCNS(=O)(=O)c1ccc(O[C@H]2c3cc(Cl)cc(Cl)c3C[C@@H]2N2CCNCC2)c(F)c1 [Example 33, 3-[2-(2-[2-[(4-[[(1S,2S)-4,6-Dichloro-2-(piperazin-1-yl)-2,3-dihydro-1H-inden-1-yl]oxy]-3-fluorobenzene)sulfonamido]ethoxy]ethoxy)ethyl]-1-[4-[[(2-(2-[2-[(4-[[(1S,2S)-4,6-dichloro-2-(piperazin-1-yl)-2,3-dihydro-1H-inden-1-y]oxy]-3-fluorobenzene)sulfonamido]ethoxy]ethoxy)ethyl]carbamoyl]amino)butyl]urea; bis(trifluoroacetic acid)] | C (>70%) | 
7 | N#Cc1cc(Cl)cc2c1C[C@H](N1CCNCC1)[C@H]2Oc1ccc(S(=O)(=O)NCCOCCOCCNC(=O)NCCCCNC(=O)NCCOCCOCCNS(=O)(=O)c2ccc(O[C@H]3c4cc(Cl)cc(C#N)c4C[C@@H]3N3CCNCC3)cc2)cc1 [Example 41, 3-[2-(2-[2-[(4-[[(1S,2S)-6-Chloro-4-cyano-2-(piperazin-1-yl)-2,3-dihydro-1H-inden-1-yl]oxy]benzene)sulfonamido]ethoxy]ethoxy)ethyl]-1-[4-([[2-(2-[2-[(4-[[(1S,2S)-6-chloro-4-cyano-2-(piperazin-1-yl)-2,3-dihydro-1H-inden-1-yl]oxy]benzene)sulfonamido]ethoxy]ethoxy)ethyl]carbamoyl]amino)butyl]urea; bis(trifluoroacetic acid)] | C (>70%) | C (NHE3 pIC50 > 7)
8 | Cc1cc(S(=O)(=O)N[C@@H]2CCN(CCOCCNC(=O)NCCCCNC(=O)NCCOCCN3CC[C@@H](NS(=O)(=O)c4ccc(O[C@H]5c6cc(Cl)cc(Cl)c6C[C@@H]5N(C)C)c(C)c4)C3)C2)ccc1O[C@H]1c2cc(Cl)cc(Cl)c2C[C@@H]1N(C)C [Example 53, 3-(2-[2-[(3R)-3-[(4-[[(1S,2S)-4,6-Dichloro-2-(dimethylamino)-2,3-dihydro-1H-inden-1-yl]oxy]-3-methylbenzene)sulfonamido]pyrrolidin-1 yl]ethoxy]ethyl)-1-(4-[[(2-[2-[(3R)-3-[(4-[[(1S,2S)-4,6-dichloro-2-(dimethylamino)-2,3-dihydro-1H-inden-1-yl]oxy]-3-methylbenzene)sulfonamido]pyrrolidin-1-yl]ethoxy]ethyl)carbamoyl]amino]butyl)urea] | C (>70%) | C (NHE3 pIC50 > 7)
